Experimental data as given in US6638957B1, “Use of compounds with a nitrogen-oxygen heterocycle” (Jomaa Pharmaka GmbH, priority 1999, dated 2003).
Converted amounts (≈) assume the structure as drawn.

Legend:
[1] = system: Beta vulgaris; assay: herbicidal activity, Erde Vorauflauf; assay type: in vivo
Protocol: (§1) The determination of herbicidal activity is performed according to standard procedure. Again the compounds listed on page 9 are tested.

[2] = system: Alopecurus myosuroides; assay: herbicidal activity, Erde Vorauflauf; assay type: in vivo
Protocol: as §1

[3] = system: Avena fatua; assay: herbicidal activity, Erde Vorauflauf; assay type: in vivo
Protocol: as §1

[4] = system: Abutilon theophrasti; assay: herbicidal activity, Erde Vorauflauf; assay type: in vivo
Protocol: as §1

[5] = system: Cyperus esculentus; assay: herbicidal activity, Erde Vorauflauf; assay type: in vivo
Protocol: as §1

[6] = system: Xanthium strumarium; assay: herbicidal activity, Erde Vorauflauf; assay type: in vivo
Protocol: as §1

[7] = system: Amaranthus retroflexus; assay: herbicidal activity, Erde Vorauflauf; assay type: in vivo
Protocol: as §1

[8] = system: Sinapis arvensis; assay: herbicidal activity, Erde Vorauflauf; assay type: in vivo; settings: Mutarda arvensis
Protocol: as §1

[9] = system: Zea mays; assay: herbicidal activity, Erde Vorauflauf; assay type: in vivo
Protocol: as §1

[10] = system: Galium aperine; assay: herbicidal activity, Erde Vorauflauf; assay type: in vivo
Protocol: as §1

[11] = system: Setaria viridis; assay: herbicidal activity, Erde Vorauflauf; assay type: in vivo
Protocol: as §1

[12] = system: Pseudomonas aeruginosa; assay: antibacterial activity, minimum inhibition concentration in liquid culture; assay type: cell-based; settings: LB medium, overnight at 37° C., turbidity, read-out: MIC(nM) of bacteria culture (Pseudomonas aeruginosa)
Protocol: A dilution series comprising the concentrations 500, 100, 50, 10 and 0 μmol 1^−1 of the individual compounds in LB medium is introduced into 5 culture microtubes in a volume of 0,5 ml. The tubes were inoculated with 10 μl of an overnight culture of E. coli K12 and shaken overnight at 37° C. The growth of the bacteria was assessed on the basis of the turbidity of the medium. The minimum concentration causing inhibition of bacterial growth was determined (minimum inhibition concentration MIC)
The antibacterial activity of P. aeruginosa was determined in the same manner.

[13] = system: Plasmodium falciparum; assay: antimalaria activity on in vitro cultures, [3H]-hypoxanthine incorporation; assay type: cell-based; settings: 72 h, inhibition of [3H]-hypoxanthine incorporation, 48 + 24 hours, read-out: IC50(nM) of malaria culture (Plasmodium falciparum)
Protocol: The antimalaria activity of the compounds listed on page 9 was determined on in vitro cultures of the malaria pathogen Plasmodium falciparum. The depressions of a 96-well microtitre plate were charged with in each case 200 μl of an asynchroneous Plasmodium falciparum culture at a parasitaemia of 0,4% and haematokrit of 2%. A serial dilution series of the compounds in triple steps between concentrations of 100 to 0,14 μmol 1^−1 was then prepared. The plates were incubated at 37° C., 3% CO2 and 5% O2 over a period of 48 hours. 30 μl medium supplemented with 27 μCi ml^−1 [^3H]-hypoxanthine were then added to each well. After incubation for 24 hours the parasites were harvested by filtration on a glass fibre filter and the radioactivity which had been incorporated was measured. The inhibition of the growth of parasites was measured as the percentage inhibition of the incorporation of tritium. Inhibition of the growth of the parasites has been determined as percentage inhibition of incorporation of tritium based on a comparison without the substance. The half-maximum inhibitory concentration (IC50) of the substance was determined by extrapolation of the values.

[14] = molecular target: T1, DOXP reductoisomerase of Escherichia coli (UniProt P56139); assay: inhibition of recombinant DOXP reductoisomerase (NADPH oxidation); assay type: biochemical; settings: 1 mM DOXP, 0,3 mM NADPH, pH 7,5; read-out: IC50(nM) of DOXP reductoisomerase from Helicobacter pilori
T1 sequence (P56139 1-368): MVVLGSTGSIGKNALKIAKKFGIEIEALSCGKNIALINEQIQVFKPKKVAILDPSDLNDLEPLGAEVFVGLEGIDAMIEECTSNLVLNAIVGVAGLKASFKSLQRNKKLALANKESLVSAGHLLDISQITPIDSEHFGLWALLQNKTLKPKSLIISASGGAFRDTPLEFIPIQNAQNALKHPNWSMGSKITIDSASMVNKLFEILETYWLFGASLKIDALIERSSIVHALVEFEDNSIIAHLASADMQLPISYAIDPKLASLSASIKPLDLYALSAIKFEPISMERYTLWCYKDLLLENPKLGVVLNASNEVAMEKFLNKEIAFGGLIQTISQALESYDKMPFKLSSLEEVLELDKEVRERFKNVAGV

[15] = system: Solanum; assay: herbicidal activity, Hydro Vorauflauf; assay type: in vivo
Protocol: as §1

[16] = system: Lepidium; assay: herbicidal activity, Hydro Vorauflauf; assay type: in vivo
Protocol: as §1

[17] = system: Echinochloa; assay: herbicidal activity, Hydro Vorauflauf; assay type: in vivo
Protocol: as §1

[18] = system: Reis; assay: herbicidal activity, Hydro Vorauflauf; assay type: in vivo
Protocol: as §1

[19] = system: Beta vulgaris; assay: herbicidal activity, Erde Nachauflauf; assay type: in vivo
Protocol: as §1

[20] = system: Alopecurus myosuroides; assay: herbicidal activity, Erde Nachauflauf; assay type: in vivo
Protocol: as §1

[21] = system: Avena fatua; assay: herbicidal activity, Erde Nachauflauf; assay type: in vivo
Protocol: as §1

[22] = system: Abutilon theophrasti; assay: herbicidal activity, Erde Nachauflauf; assay type: in vivo
Protocol: as §1

[23] = system: Cyperus esculentus; assay: herbicidal activity, Erde Nachauflauf; assay type: in vivo
Protocol: as §1

[24] = system: Xanthium strumarium; assay: herbicidal activity, Erde Nachauflauf; assay type: in vivo
Protocol: as §1

[25] = system: Amaranthus retroflexus; assay: herbicidal activity, Erde Nachauflauf; assay type: in vivo
Protocol: as §1

[26] = system: Sinapis arvensis; assay: herbicidal activity, Erde Nachauflauf; assay type: in vivo; settings: Mutarda arvensis
Protocol: as §1

[27] = system: Zea mays; assay: herbicidal activity, Erde Nachauflauf; assay type: in vivo
Protocol: as §1

[28] = system: Galium aperine; assay: herbicidal activity, Erde Nachauflauf; assay type: in vivo
Protocol: as §1

[29] = system: Setaria viridis; assay: herbicidal activity, Erde Nachauflauf; assay type: in vivo
Protocol: as §1

CC(C)N(C)CCCN1OCCC1=O [Compound 7]
plant injury at 2000 g/ha ([1]; 2000 Gramm/Hektar): 70%
pest or weed control at 2000 g/ha ([2]; 2000 Gramm/Hektar): 30%
pest or weed control at 2000 g/ha ([3]; 2000 Gramm/Hektar): 30%
pest or weed control at 2000 g/ha ([4]; 2000 Gramm/Hektar): 0%
pest or weed control at 2000 g/ha ([5]; 2000 Gramm/Hektar): 0%
pest or weed control at 2000 g/ha ([6]; 2000 Gramm/Hektar): 0%
pest or weed control at 2000 g/ha ([7]; 2000 Gramm/Hektar): 20%
pest or weed control at 2000 g/ha ([8]; 2000 Gramm/Hektar): 30%
plant injury at 2000 g/ha ([9]; 2000 Gramm/Hektar): 30%
pest or weed control at 2000 g/ha ([10]; 2000 Gramm/Hektar): 0%
pest or weed control at 2000 g/ha ([11]; 2000 Gramm/Hektar): 0%
MIC [12]: 9000 nM (≈ 1.8 µg/mL)
IC50 [13]: 400 nM
IC50 [14]: 18 nM
pest or weed control at 4000 g/ha ([15]; 4000 Gramm/Hektar): 30%
pest or weed control at 4000 g/ha ([16]; 4000 Gramm/Hektar): 0%
pest or weed control at 4000 g/ha ([17]; 4000 Gramm/Hektar): 40%
pest or weed control at 4000 g/ha ([18]; 4000 Gramm/Hektar): 30%
plant injury at 2000 g/ha ([19]; 2000 Gramm/Hektar): 70%
pest or weed control at 2000 g/ha ([20]; 2000 Gramm/Hektar): 80%
pest or weed control at 2000 g/ha ([21]; 2000 Gramm/Hektar): 80%
pest or weed control at 2000 g/ha ([22]; 2000 Gramm/Hektar): 50%
pest or weed control at 2000 g/ha ([23]; 2000 Gramm/Hektar): 0%
pest or weed control at 2000 g/ha ([24]; 2000 Gramm/Hektar): 90%
pest or weed control at 2000 g/ha ([25]; 2000 Gramm/Hektar): 50%
pest or weed control at 2000 g/ha ([26]; 2000 Gramm/Hektar): 80%
plant injury at 2000 g/ha ([27]; 2000 Gramm/Hektar): 70%
pest or weed control at 2000 g/ha ([28]; 2000 Gramm/Hektar): 95%
pest or weed control at 2000 g/ha ([29]; 2000 Gramm/Hektar): 90%

CN(C)CC(=O)CN1OCCC(C)(C)C1=O [Compound 8]
plant injury at 1000 g/ha ([1]; 1000 Gramm/Hektar): 30%
pest or weed control at 1000 g/ha ([2]; 1000 Gramm/Hektar): 30%
pest or weed control at 1000 g/ha ([3]; 1000 Gramm/Hektar): 30%
pest or weed control at 1000 g/ha ([4]; 1000 Gramm/Hektar): 0%
pest or weed control at 1000 g/ha ([5]; 1000 Gramm/Hektar): 0%
pest or weed control at 1000 g/ha ([6]; 1000 Gramm/Hektar): 0%
pest or weed control at 1000 g/ha ([7]; 1000 Gramm/Hektar): 20%
pest or weed control at 1000 g/ha ([8]; 1000 Gramm/Hektar): 30%
plant injury at 1000 g/ha ([9]; 1000 Gramm/Hektar): 30%
pest or weed control at 1000 g/ha ([10]; 1000 Gramm/Hektar): 0%
pest or weed control at 1000 g/ha ([11]; 1000 Gramm/Hektar): 0%
MIC [12]: 7300 nM (≈ 1.67 µg/mL)
IC50 [13]: 700 nM
IC50 [14]: 24 nM
pest or weed control at 2000 g/ha ([15]; 2000 Gramm/Hektar): 30%
pest or weed control at 2000 g/ha ([16]; 2000 Gramm/Hektar): 30%
pest or weed control at 2000 g/ha ([17]; 2000 Gramm/Hektar): 40%
pest or weed control at 2000 g/ha ([18]; 2000 Gramm/Hektar): 0%
plant injury at 1000 g/ha ([19]; 1000 Gramm/Hektar): 40%
pest or weed control at 1000 g/ha ([20]; 1000 Gramm/Hektar): 70%
pest or weed control at 1000 g/ha ([21]; 1000 Gramm/Hektar): 80%
pest or weed control at 1000 g/ha ([22]; 1000 Gramm/Hektar): 50%
pest or weed control at 1000 g/ha ([23]; 1000 Gramm/Hektar): 0%
pest or weed control at 1000 g/ha ([24]; 1000 Gramm/Hektar): 90%
pest or weed control at 1000 g/ha ([25]; 1000 Gramm/Hektar): 50%
pest or weed control at 1000 g/ha ([26]; 1000 Gramm/Hektar): 90%
plant injury at 1000 g/ha ([27]; 1000 Gramm/Hektar): 70%
pest or weed control at 1000 g/ha ([28]; 1000 Gramm/Hektar): 70%
pest or weed control at 1000 g/ha ([29]; 1000 Gramm/Hektar): 90%
